Measured values: patent US20090306373A1, “4,7-DIHYDROTHIENO[2,3-B]PYRIDINE COMPOUNDS AND PHARMACEUTICAL COMPOSITIONS” (priority 2005, published 2009)

System: alpha-MyHC
Test: alpha-MyHC cytoblot in neonatal rat ventricular myocytes (NRVM)
Type: cell-based
Settings: Rattus norvegicus, Ventricular myocyte, Table 1, 72 hours, concentration giving 50% of maximum response
Method: In vitro activity of each compound is measured using the alpha-MyHC cytoblot process. Briefly, neonatal rat ventricular myocytes (NRVM) at 120,000 cells/ml in HyQ DME/High modified culture media supplemented with 10% charcoal/dextran treated FBS, 0.1% Nutridoma-SP, 1:100 MEM non-essential amino acids, 1:50 MEM amino acids solution w/o L-Gln, 1 mM sodium pyruvate and 1:100 P/S/G, are plated on gelatin coated sterile 384-well plates (Costar 3712) at 6,000 cells per well. Cells are incubated overnight at 37° C. in 5% CO2 100% humidity. Following overnight growth the media is changed to HyQ DME/High modified culture media supplemented with 0.3% Nutridoma-SP, 1:100 MEM non-essential amino acids, 1:50 MEM amino acids solution w/o L-Gln, 1 mM sodium pyruvate and 1:100 P/S/G. Cells are then dosed with serial dilutions of each compound in DMSO. Each concentration in the dose range is dosed in quadruplicate. Dosing is done in such a way so that the final DMSO concentration was 0.44%. Compound dilutions are 3-fold with the final top concentration of 10 uM. […] Following dosing, the cells are incubated for 72 hours at 37° C. in 5% CO2 100% humidity and then processed with the cytoblot method. Briefly, cell media is aspirated and cell monolayers washed with PBS and fixed with 100% methanol for 30 minutes. Fixed cells are then blocked with PBS, 0.05% Tween-20, 1% BSA, for 1 hour. Following blocking, cells are incubated with primary alpha-MyHC-specific antibody (1:30 dilution of BA-G5 hybridoma conditioned media, ATCC HB276) for 1 hour. Following incubation with the primary antibody, cells are washed with PBS, 0.05% Tween-20, 1% BSA and incubated with secondary antibody (1:1000 dilution, goat-anti-mouse HRP, Southern Biotech, 1031-05) for 1 hour. Following incubation with the secondary antibody, wells are washed and incubated in SuperSignal, West Dura HRP-luminescence substrate for 30 seconds under shaking at room temperature. Luminescence is measured using a Packard Fusion plate reader. […] RLU values are converted into percent fraction of low control and dose responses are fitted to a sigmoidal 4-parameter equation (XLFit, IDBS) where the EC50 and Max Plateau values were extracted. […] Max Plateau is the […] maximum value determined by the dose response fit.

`CCC(=O)C1=C(CC)Nc2sc(C(=O)c3ccc(Cl)c(Cl)c3)c(N)c2C1c1ccncc1` (stereo not shown) [Compound 104, 1-[3-amino-2-(3,4 dichloro-benzoyl)-6-ethyl-4 pyridin-4-yl-4,7 dihydro-thieno[2,3-b]pyridin-5-yl]-propan-1-one] showed an EC50 of 24.8 nM.

Same assay, conditions: Table 1, 72 hours, fitted maximum, percent fraction of low control (vehicle), in %

First: CC(=O)C1=C(C)Nc2sc(C(=O)c3ccc(Cl)c(Cl)c3)c(N)c2C1c1ccc(Cl)cc1Cl (stereo not shown) [Compound 52]
Second: CC(=O)C1=C(C)Nc2sc(C(=O)c3ccc(Cl)c(Cl)c3)c(N)c2C1c1ccc(O)cc1Cl (stereo not shown) [Compound 29]
The “Max Plateau” value of the first is lower: 122.73 ± 20.55 for the first, 281.88 ± 32.78 for the second.

First: CC(=O)C1=C(C)Nc2sc(C(=O)c3ccc(Cl)c(Cl)c3)c(N)c2C1c1ccc(C)cc1 (stereo not shown) [Compound 45]
Second: CC(=O)C1=C(C)Nc2sc(C(=O)c3ccc(Cl)c(Cl)c3)c(N)c2C1c1ccccc1F (stereo not shown) [Compound 27]
The “Max Plateau” value of the first is lower: 108.63 ± 9.14 for the first, 220.13 ± 23.10 for the second.

`CCC(=O)C1=C(CC)Nc2sc(C(=O)c3cccnc3)c(N)c2C1c1ccnc(F)c1` (stereo not shown) [Compound 103] and `CCC(=O)C1=C(CC)Nc2sc(C(=O)c3ccc(Cl)c(Cl)c3)c(N)c2C1c1cccnc1` (stereo not shown) [Compound 75] are within error of each other in “Max Plateau” value: 254.65 ± 31.26 for the first, 226.71 ± 40.80 for the second.

`CCC(=O)C1=C(CC)Nc2sc(C(=O)c3cccc([N+](=O)[O-])c3)c(N)c2C1c1ccccc1F` (stereo not shown) [Compound 97] and `CCC(=O)C1=C(CC)Nc2sc(C(=O)c3c(Cl)cccc3Cl)c(N)c2C1c1ccccc1F` (stereo not shown) [Compound 107] are within error of each other in “Max Plateau” value: 247.24 ± 38.88 for the first, 273.85 ± 29.06 for the second.

`CCC(=O)C1=C(CC)Nc2sc(C(=O)c3ccc(Cl)c(Cl)c3)c(N)c2C1c1ccccc1C` (stereo not shown) [Compound 56] and `CCC(=O)C1=C(CC)Nc2sc(C(=O)c3ccc(Cl)c(Cl)c3)c(N)c2C1c1ccccc1Cl` (stereo not shown) [Compound 53] are within error of each other in “Max Plateau” value: 293.74 ± 50.82 for the first, 259.43 ± 26.30 for the second.

`CCC(=O)C1=C(CC)Nc2sc(C(=O)c3ccccc3)c(N)c2C1c1c(F)cccc1F` (stereo not shown) [Compound 69] and `CCC(=O)C1=C(CC)Nc2sc(C(=O)c3ccc(Cl)c(Cl)c3)c(N)c2C1c1c(F)cccc1F` (stereo not shown) [Compound 63] are within error of each other in “Max Plateau” value: 221.36 ± 15.94 for the first, 230.07 ± 45.59 for the second.

`CCC(=O)C1=C(CC)Nc2sc(C(=O)c3ccc(Cl)c(Cl)c3)c(N)c2C1c1cc(F)cc(F)c1` (stereo not shown) [Compound 100] and `CCC(=O)C1=C(CC)Nc2sc(C(=O)c3ccccc3)c(N)c2C1c1cc(F)cc(F)c1` (stereo not shown) [Compound 105] are within error of each other in “Max Plateau” value: 262.04 ± 31.65 for the first, 273.18 ± 37.33 for the second.

Compared with `CCC(=O)C1=C(CC)Nc2sc(C(=O)c3ccc(Cl)c(Cl)c3)c(N)c2C1c1cccc2ccccc12` (stereo not shown) [Compound 85], `CCC(=O)C1=C(CC)Nc2sc(C(=O)c3ccc(Cl)c(Cl)c3)c(N)c2C1c1cccc(Cl)c1` (stereo not shown) [Compound 54] is higher in “Max Plateau” value: 105.90 ± 6.18 for the first, 267.44 ± 32.29 for the second.

`CCC(=O)C1=C(CC)Nc2sc(C(=O)c3ccc(Cl)c(Cl)c3)c(N)c2C1c1c(F)cccc1Cl` (stereo not shown) [Compound 40] and `CCC(=O)C1=C(CC)Nc2sc(C(=O)c3cc(Cl)ccc3Cl)c(N)c2C1c1ccccc1` (stereo not shown) [Compound 64] are within error of each other in “Max Plateau” value: 244.87 ± 7.92 for the first, 281.39 ± 54.54 for the second.

`CC(=O)C1=C(C)Nc2sc(C(=O)c3ccccc3)c(N)c2C1c1ccncc1` (stereo not shown) [Compound 19] and `CC(=O)C1=C(C)Nc2sc(C(=O)c3ccncc3)c(N)c2C1c1ccccc1` (stereo not shown) [Compound 10] are within error of each other in “Max Plateau” value: 260.00 ± 36.06 for the first, 210.00 ± 36.06 for the second.

`CC(=O)C1=C(C)Nc2sc(C(=O)c3ccccc3)c(N)c2C1C1CCCCC1` (stereo not shown) [Compound 26] and `CC(=O)C1=C(C)Nc2sc(C(=O)c3ccccc3)c(N)c2C1c1ccc(Cl)cc1` (stereo not shown) [Compound 21] are within error of each other in “Max Plateau” value: 185.33 ± 55.04 for the first, 193.20 ± 49.26 for the second.

Going from `CC(=O)C1=C(C)Nc2sc(C(=O)c3cccc([N+](=O)[O-])c3)c(N)c2C1c1ccc(C(=O)O)cc1` (stereo not shown) [Compound 9] to `CC(=O)C1=C(C)Nc2sc(C(=O)c3cccnc3)c(N)c2C1c1ccccc1` (stereo not shown) [Compound 5], the “Max Plateau” value rises from 100.00 ± 0.00 to 286.43 ± 42.04.

`CCC(=O)C1=C(CC)Nc2sc(C(=O)c3ccccc3)c(N)c2C1c1cccnc1` (stereo not shown) [Compound 68] and `CCCC(=O)C1=C(CCC)Nc2sc(C(=O)c3cc(Cl)ccc3Cl)c(N)c2C1c1ccccc1F` (stereo not shown) [Compound 92] are within error of each other in “Max Plateau” value: 175.88 ± 14.54 for the first, 189.00 ± 25.40 for the second.

In the case of `CC(=O)C1=C(C)Nc2sc(C(=O)c3ccc(Cl)c(Cl)c3)c(N)c2C1c1ccccc1O` (stereo not shown) [Compound 34], the “Max Plateau” value is reported as 184.69 ± 15.76.

Same assay, conditions: Table 2, 72 hours, fitted maximum, percent fraction of low control (vehicle), in %

Going from `CC1=C(C(=O)OC(C)C)C(c2ccccc2)c2c(sc(C(=O)c3ccc(Cl)c(Cl)c3)c2N)N1` (stereo not shown) [Compound 135] to `COC(=O)C1=C(C(C)C)Nc2sc(C(=O)c3ccc(Cl)c(Cl)c3)c(N)c2C1c1ccccc1` (stereo not shown) [Compound 116], the “Max Plateau” value falls from 186.32 to 107.57.

First: CCC1=C(C(=O)OC)C(c2cccc(Cl)c2F)c2c(sc(C(=O)c3cccc([N+](=O)[O-])c3)c2N)N1 (stereo not shown) [Compound 156]
Second: CCC1=C(C(=O)OC)C(c2ccccc2F)c2c(sc(C(=O)c3ccc(Cl)c(C)c3)c2N)N1 (stereo not shown) [Compound 150]
The “Max Plateau” value of the first is higher: 243.78 for the first, 228.28 for the second.

First: CCC1=C(C(=O)OC)C(c2c(F)cccc2F)c2c(sc(C(=O)c3ccc(Cl)c(Cl)c3)c2N)N1 (stereo not shown) [Compound 137]
Second: CCC1=C(C(=O)OC(C)CC)C(c2ccccc2F)c2c(sc(C(=O)c3ccc(Cl)c(Cl)c3)c2N)N1 (single isomer, unassigned) [Compound 162]
The “Max Plateau” value of the first is higher: 213.90 for the first, 183.22 for the second.

Going from `COCC1=C(C(=O)OC)C(c2ccccc2)c2c(sc(C(=O)c3ccc(Cl)c(Cl)c3)c2N)N1` (stereo not shown) [Compound 120] to `CCOC(=O)C1=C(CC)Nc2sc(C(=O)c3ccc(Cl)cc3Cl)c(N)c2C1c1ccccc1` (stereo not shown) [Compound 145], the “Max Plateau” value rises from 140.79 to 224.48.

Compared with `CCOC(=O)C1=C(CC)Nc2sc(C(=O)c3ccc(Cl)c(Cl)c3)c(N)c2C1c1ccncc1F` (stereo not shown) [Compound 168], `CCOC(=O)C1=C(CC)Nc2sc(C(=O)c3ccc(F)c(F)c3)c(N)c2C1c1ccncc1F` (stereo not shown) [Compound 173] is higher in “Max Plateau” value: 239.64 for the first, 257.43 for the second.

Going from `CCOC(=O)C1=C(CC)Nc2sc(C(=O)c3cc(F)cc(F)c3)c(N)c2C1c1ccccc1` (stereo not shown) [Compound 151] to `CCOC(=O)C1=C(CC)Nc2sc(C(=O)c3cc(C(F)(F)F)cc(C(F)(F)F)c3)c(N)c2C1c1ccccc1` (stereo not shown) [Compound 149], the “Max Plateau” value falls from 273.61 to 207.18.
